Experimental data as given in PubChem BioAssay (NCI).
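Results reflect a 48-hour exposure of cells in 96-well plates to compound at five concentrations. Abbreviation: GI50, concentration required for 50% inhibition of growth. TGI marks complete inhibition of growth.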

Legend:
Assay in all cases: DTP human tumour cell line panel, 48 h
OVCAR-4 ovarian = test system: OVCAR-4 ovarian
OVCAR-8 ovarian = test system: OVCAR-8 ovarian
SNB-19 CNS = test system: SNB-19 CNS
HCT-15 colon = test system: HCT-15 colon
UO-31 renal = test system: UO-31 renal
A498 renal = test system: A498 renal
HL-60(TB) leukemia = test system: HL-60(TB) leukemia
MALME-3M melanoma = test system: MALME-3M melanoma

SMILES	TGI (OVCAR-4 ovarian) [µM]	TGI (OVCAR-8 ovarian) [µM]	TGI (SNB-19 CNS) [µM]	TGI (HCT-15 colon) [µM]	TGI (UO-31 renal) [µM]	TGI (A498 renal) [µM]	TGI (HL-60(TB) leukemia) [µM]	TGI (MALME-3M melanoma) [µM]	GI50 (OVCAR-4 ovarian) [µM]	GI50 (OVCAR-8 ovarian) [µM]	GI50 (SNB-19 CNS) [µM]	GI50 (HCT-15 colon) [µM]	GI50 (UO-31 renal) [µM]	GI50 (A498 renal) [µM]	GI50 (MALME-3M melanoma) [µM]
CN(C)CCNC(=O)c1cccc2nc3ccc4cccnc4c3nc12	3.21	7.42	6.75	2.33	2.4	0.845	2.91								
COC1=CC(=O)C(Br)=CC1=O	32.1	65.8	32.9	47	31.7		23.6	35.6							
COC1=CC(=O)C2C(C1=O)[C@@H]1c3ccccc3OC(C)(C)[C@H]21 (stereo partly specified)	32.4	42.2	97.7	36.2	38.1	> 100	33.8	34							
Cc1cc(C)nc(NS(=O)(=O)c2ccc(Nc3c4ccccc4nc4c(C(=O)Nc5ccc(S(=O)(=O)Nc6cc(C)on6)cc5)ccc(Cl)c34)cc2)n1	65.3	> 100	48.9	> 100	45.3	38.3		86.5							
COc1ccc2c3c(c(C(=O)O)oc13)CCC2	> 100	> 100	> 100	> 100	> 100		> 100	> 100							
CCCN(CCC)CCc1cc(C(C)=O)n(S(=O)(=O)c2ccc(C)cc2)c1	> 100	> 100	> 100	> 100	> 100	> 100		> 100							
O=C1NC(=O)C(=Cc2c3ccccc3cc3ccccc23)C(=O)N1		> 100	> 100	> 100	> 100	> 100	> 100								
O=S(=O)(c1ccccc1)c1nccs1	> 100	> 100	> 100	> 100	> 100	> 100	> 100								
COc1cc2c(c(O)c1C)C(=O)CC(c1ccccc1)O2 (stereo unspecified)	> 10	> 100		> 100	> 100	> 100		> 100							
COc1cccc2c1C(=O)c1c(O)c3c(c(O)c1C2=O)C[C@@](O)(C(C)=O)C[C@@H]3OC1CC([N+]([O-])(Cc2ccccc2)Cc2ccccc2)C(O)C(C)O1 (stereo partly specified)	4.17	14.9	15.8	2.76	2.54	8.53									
CCC[CH2][Sn]([CH2]CCC)([CH2]CCC)[O]C(=O)C(OC(C)=O)c1ccccc1 (stereo unspecified)	0.221	0.304	0.322	0.28	0.292	0.305		0.274	0.103	0.167	0.176	0.144	0.157	0.154	0.143
Cc1ccc(NC(=O)C(=O)C(C(=O)c2ccc3ccccc3c2)C2OC(=O)c3ccccc32)c(C)c1 (stereo unspecified)	25.6	36.8		40.2	36.7	20		22.4							
CCOP(=O)(OCC)/C(C#N)=C\c1ccsc1	> 100	> 100	> 100	> 100	> 100			> 100							
CC(C)=O.O=C([O-])C(F)(F)F.O=C([O-])C(F)(F)F.O=C([O-])C(F)(F)F.O=C([O-])C(F)(F)F.[Rh+2].[Rh+2]	> 100	> 100	> 100	> 100	> 100				69.7	56.1	60.4	> 100	> 100		
S=c1nc(C(c2ccccc2)c2ccccc2)[nH][nH]1		> 100	> 100	> 100	> 100	> 100	> 100	> 100							
CC1(C)OC2CC3COC(=O)C3CC2O1 (stereo unspecified)	> 100	> 100		> 100	> 100	> 100	> 100	> 100							
COc1cc(O)c(C(=O)CC(C)=O)c(OC)c1	> 100	> 100	> 100		> 100		> 100	> 100							
CC(C)(CN1CCOCC1)C(=O)/C=C/c1ccc(/C=C/C(=O)C(C)(C)CN2CCOCC2)cc1	2.4	7.52		4.03	3.15	3.6	3.92								
Cn1cnc([N+](=O)[O-])c1Sc1nnnn1C	30.8	33.2	> 100		32.6	> 100		26.9							
O=C(N/C(=C\c1c(O)ccc2ccccc12)c1nc2ccccc2[nH]1)c1ccccc1	> 100	> 100	> 100	> 100	> 100	> 100		> 100							
CSC(=Nc1ccccc1Cl)NC(=O)c1ccc(Br)cc1	38.4	> 100	> 100	> 100	> 100		> 100	> 100							
NCCOCn1cc(Cc2cccc(OCc3ccccc3)c2)c(=O)[nH]c1=O	> 100	> 100	> 100	> 100	> 100		> 100								
